Reference: PubChem BioAssay (NCI)
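GI50 = concentration required for 50% inhibition of growth. TGI: total growth inhibition.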

Experiments:
Test in all cases: DTP human tumour cell line panel, 384-well format
786-0 renal = test system: 786-0 renal
A498 renal = test system: A498 renal
A549 NSCLC = test system: A549 NSCLC
BT-549 breast = test system: BT-549 breast
CCRF-CEM leukemia = test system: CCRF-CEM leukemia
COLO 205 colon = test system: COLO 205 colon
DU-145 prostate = test system: DU-145 prostate
HCC-2998 colon = test system: HCC-2998 colon
HCT-116 colon = test system: HCT-116 colon
HL-60(TB) leukemia = test system: HL-60(TB) leukemia
HOP-62 NSCLC = test system: HOP-62 NSCLC
HOP-92 NSCLC = test system: HOP-92 NSCLC
HS 578T breast = test system: HS 578T breast
HT29 colon = test system: HT29 colon
IGROV1 ovarian = test system: IGROV1 ovarian
KM12 colon = test system: KM12 colon
M14 melanoma = test system: M14 melanoma
MALME-3M melanoma = test system: MALME-3M melanoma
MCF7 breast = test system: MCF7 breast
MDA-MB-231 breast = test system: MDA-MB-231 breast
MDA-MB-435 melanoma = test system: MDA-MB-435 melanoma
MDA-MB-468 breast = test system: MDA-MB-468 breast
MOLT-4 leukemia = test system: MOLT-4 leukemia
NCI-H226 lung = test system: NCI-H226 lung
NCI-H23 lung = test system: NCI-H23 lung
NCI-H322M lung = test system: NCI-H322M lung
NCI-H460 NSCLC = test system: NCI-H460 NSCLC
NCI-H522 lung = test system: NCI-H522 lung
OVCAR-3 ovarian = test system: OVCAR-3 ovarian
OVCAR-4 ovarian = test system: OVCAR-4 ovarian
OVCAR-8 ovarian = test system: OVCAR-8 ovarian
PC-3 prostate = test system: PC-3 prostate
RPMI-8226 leukemia = test system: RPMI-8226 leukemia
RXF 393 renal = test system: RXF 393 renal
SF-268 CNS = test system: SF-268 CNS
SF-295 CNS = test system: SF-295 CNS
SF-539 CNS = test system: SF-539 CNS
SK-MEL-28 melanoma = test system: SK-MEL-28 melanoma
SK-OV-3 ovarian = test system: SK-OV-3 ovarian
SN12C renal = test system: SN12C renal
SNB-19 CNS = test system: SNB-19 CNS
SNB-75 CNS = test system: SNB-75 CNS
SR leukemia = test system: SR leukemia
SW-620 colon = test system: SW-620 colon
T-47D breast = test system: T-47D breast
TK-10 renal = test system: TK-10 renal
U251 glioblastoma = test system: U251 glioblastoma
UACC-257 melanoma = test system: UACC-257 melanoma
UACC-62 melanoma = test system: UACC-62 melanoma
UO-31 renal = test system: UO-31 renal

**Q.** How did the GI50 (786-0 renal) turn out when `CNC(=O)c1nn(C)c2c1C(C)(C)Cc1cnc(Nc3cccc(N4CCN(C)CC4)c3)nc1-2` was run?
**A.** Its GI50 is 309 nM.

**Q.** What about the TGI (786-0 renal) of the same compound?
**A.** Its TGI is 10.9 µM.

**Q.** And the GI50 (A498 renal)?
**A.** The GI50 was 46.6 nM.

**Q.** And the TGI (A498 renal)?
**A.** The TGI was 12.3 µM.

**Q.** And the GI50 (A549 NSCLC)?
**A.** The GI50 was 278 nM.

**Q.** What about the TGI (A549 NSCLC) of the same compound?
**A.** The TGI was 12.8 µM.

**Q.** What about the GI50 (BT-549 breast) of the same compound?
**A.** The GI50 was 276 nM.

**Q.** What about the TGI (BT-549 breast) of the same compound?
**A.** Its TGI is 2040 nM.

**Q.** What about the GI50 (CCRF-CEM leukemia) of the same compound?
**A.** The GI50 was 252 nM.

**Q.** And the TGI (CCRF-CEM leukemia)?
**A.** The TGI was 1210 nM.

**Q.** What about the GI50 (COLO 205 colon) of the same compound?
**A.** The GI50 was 416 nM.

**Q.** And the TGI (COLO 205 colon)?
**A.** The TGI was 9.35 µM.

**Q.** And the GI50 (DU-145 prostate)?
**A.** Its GI50 is 522 nM.

**Q.** What about the TGI (DU-145 prostate) of the same compound?
**A.** The TGI was 10.5 µM.

**Q.** What about the GI50 (HCC-2998 colon) of the same compound?
**A.** The GI50 was 433 nM.

**Q.** What about the TGI (HCC-2998 colon) of the same compound?
**A.** Its TGI is 6.56 µM.

**Q.** What about the GI50 (HCT-116 colon) of the same compound?
**A.** The GI50 was 123 nM.

**Q.** And the TGI (HCT-116 colon)?
**A.** The TGI was 11.7 µM.

**Q.** What about the GI50 (HL-60(TB) leukemia) of the same compound?
**A.** The GI50 was 84.2 nM.

**Q.** What about the TGI (HL-60(TB) leukemia) of the same compound?
**A.** The TGI was 1630 nM.

**Q.** And the GI50 (HOP-62 NSCLC)?
**A.** Its GI50 is 357 nM.

**Q.** What about the TGI (HOP-62 NSCLC) of the same compound?
**A.** The TGI was 7.18 µM.

**Q.** And the GI50 (HOP-92 NSCLC)?
**A.** The GI50 was 199 nM.

**Q.** What about the TGI (HOP-92 NSCLC) of the same compound?
**A.** The TGI was over 100 µM.

**Q.** What about the GI50 (HS 578T breast) of the same compound?
**A.** Its GI50 is 148 nM.

**Q.** And the TGI (HS 578T breast)?
**A.** Its TGI is 1310 nM.

**Q.** What about the GI50 (HT29 colon) of the same compound?
**A.** The GI50 was 886 nM.

**Q.** And the TGI (HT29 colon)?
**A.** The TGI was 3.76 µM.

**Q.** And the GI50 (IGROV1 ovarian)?
**A.** Its GI50 is 62.4 nM.

**Q.** What about the TGI (IGROV1 ovarian) of the same compound?
**A.** The TGI was 616 nM.

**Q.** What about the GI50 (KM12 colon) of the same compound?
**A.** The GI50 was 33.7 nM.

**Q.** And the TGI (KM12 colon)?
**A.** Its TGI is 10.6 µM.

**Q.** And the GI50 (M14 melanoma)?
**A.** The GI50 was 124 nM.

**Q.** What about the TGI (M14 melanoma) of the same compound?
**A.** Its TGI is 3.59 µM.

**Q.** What about the GI50 (MALME-3M melanoma) of the same compound?
**A.** The GI50 was 253 nM.

**Q.** And the TGI (MALME-3M melanoma)?
**A.** The TGI was 2030 nM.

**Q.** What about the GI50 (MCF7 breast) of the same compound?
**A.** Its GI50 is 345 nM.

**Q.** And the TGI (MCF7 breast)?
**A.** The TGI was 11.4 µM.

**Q.** And the GI50 (MDA-MB-231 breast)?
**A.** The GI50 was 251 nM.

**Q.** And the TGI (MDA-MB-231 breast)?
**A.** Its TGI is 43.6 µM.

**Q.** What about the GI50 (MDA-MB-435 melanoma) of the same compound?
**A.** Its GI50 is 612 nM.

**Q.** What about the TGI (MDA-MB-435 melanoma) of the same compound?
**A.** The TGI was 11.3 µM.

**Q.** What about the GI50 (MDA-MB-468 breast) of the same compound?
**A.** Its GI50 is 463 nM.

**Q.** And the TGI (MDA-MB-468 breast)?
**A.** Its TGI is 1830 nM.

**Q.** And the GI50 (MOLT-4 leukemia)?
**A.** The GI50 was 130 nM.

**Q.** What about the TGI (MOLT-4 leukemia) of the same compound?
**A.** Its TGI is 317 nM.

**Q.** What about the GI50 (NCI-H226 lung) of the same compound?
**A.** The GI50 was 251 nM.

**Q.** And the TGI (NCI-H226 lung)?
**A.** Its TGI is 4.6 µM.

**Q.** And the GI50 (NCI-H23 lung)?
**A.** The GI50 was 157 nM.

**Q.** And the TGI (NCI-H23 lung)?
**A.** Its TGI is 895 nM.

**Q.** What about the GI50 (NCI-H322M lung) of the same compound?
**A.** The GI50 was 523 nM.

**Q.** What about the TGI (NCI-H322M lung) of the same compound?
**A.** Its TGI is 11.2 µM.

**Q.** What about the GI50 (NCI-H460 NSCLC) of the same compound?
**A.** The GI50 was 89.3 nM.

**Q.** And the TGI (NCI-H460 NSCLC)?
**A.** Its TGI is 5.35 µM.

**Q.** And the GI50 (NCI-H522 lung)?
**A.** The GI50 was 153 nM.

**Q.** What about the TGI (NCI-H522 lung) of the same compound?
**A.** Its TGI is 436 nM.

**Q.** What about the GI50 (OVCAR-3 ovarian) of the same compound?
**A.** The GI50 was 167 nM.

**Q.** What about the TGI (OVCAR-3 ovarian) of the same compound?
**A.** The TGI was 741 nM.

**Q.** What about the GI50 (OVCAR-4 ovarian) of the same compound?
**A.** The GI50 was 2260 nM.

**Q.** And the TGI (OVCAR-4 ovarian)?
**A.** The TGI was 10.6 µM.

**Q.** What about the GI50 (OVCAR-8 ovarian) of the same compound?
**A.** The GI50 was 1450 nM.

**Q.** What about the TGI (OVCAR-8 ovarian) of the same compound?
**A.** Its TGI is 17.1 µM.

**Q.** What about the GI50 (PC-3 prostate) of the same compound?
**A.** The GI50 was 185 nM.

**Q.** And the TGI (PC-3 prostate)?
**A.** The TGI was 11.2 µM.

**Q.** And the GI50 (RPMI-8226 leukemia)?
**A.** Its GI50 is 95.4 nM.

**Q.** And the TGI (RPMI-8226 leukemia)?
**A.** The TGI was 253 nM.

**Q.** And the GI50 (RXF 393 renal)?
**A.** The GI50 was 122 nM.

**Q.** And the TGI (RXF 393 renal)?
**A.** The TGI was 2140 nM.

**Q.** And the GI50 (SF-268 CNS)?
**A.** Its GI50 is 536 nM.

**Q.** And the TGI (SF-268 CNS)?
**A.** Its TGI is 2270 nM.

**Q.** What about the GI50 (SF-295 CNS) of the same compound?
**A.** Its GI50 is 375 nM.

**Q.** What about the TGI (SF-295 CNS) of the same compound?
**A.** The TGI was 3.9 µM.

**Q.** And the GI50 (SF-539 CNS)?
**A.** The GI50 was 405 nM.

**Q.** What about the TGI (SF-539 CNS) of the same compound?
**A.** The TGI was 3.42 µM.

**Q.** And the GI50 (SK-MEL-28 melanoma)?
**A.** The GI50 was 1080 nM.

**Q.** And the TGI (SK-MEL-28 melanoma)?
**A.** The TGI was 4.01 µM.

**Q.** And the GI50 (SK-OV-3 ovarian)?
**A.** The GI50 was 42.2 nM.

**Q.** And the TGI (SK-OV-3 ovarian)?
**A.** Its TGI is 1290 nM.

**Q.** And the GI50 (SN12C renal)?
**A.** Its GI50 is 198 nM.

**Q.** And the TGI (SN12C renal)?
**A.** Its TGI is 1740 nM.

**Q.** And the GI50 (SNB-19 CNS)?
**A.** Its GI50 is 414 nM.

**Q.** And the TGI (SNB-19 CNS)?
**A.** Its TGI is 24.1 µM.

**Q.** What about the GI50 (SNB-75 CNS) of the same compound?
**A.** Its GI50 is 216 nM.

**Q.** And the TGI (SNB-75 CNS)?
**A.** The TGI was 2170 nM.

**Q.** And the TGI (SR leukemia)?
**A.** Its TGI is 57.3 nM.

**Q.** And the GI50 (SW-620 colon)?
**A.** The GI50 was 391 nM.

**Q.** And the TGI (SW-620 colon)?
**A.** The TGI was 12.6 µM.

**Q.** And the GI50 (T-47D breast)?
**A.** The GI50 was 1610 nM.

**Q.** What about the TGI (T-47D breast) of the same compound?
**A.** Its TGI is 13.5 µM.

**Q.** And the GI50 (TK-10 renal)?
**A.** Its GI50 is 336 nM.

**Q.** What about the TGI (TK-10 renal) of the same compound?
**A.** Its TGI is 10.4 µM.

**Q.** What about the GI50 (U251 glioblastoma) of the same compound?
**A.** Its GI50 is 437 nM.

**Q.** What about the TGI (U251 glioblastoma) of the same compound?
**A.** Its TGI is 12.7 µM.

**Q.** And the GI50 (UACC-257 melanoma)?
**A.** The GI50 was 1160 nM.

**Q.** And the TGI (UACC-257 melanoma)?
**A.** The TGI was 4.3 µM.

**Q.** What about the GI50 (UACC-62 melanoma) of the same compound?
**A.** The GI50 was 206 nM.

**Q.** What about the TGI (UACC-62 melanoma) of the same compound?
**A.** The TGI was 2260 nM.

**Q.** And the GI50 (UO-31 renal)?
**A.** Its GI50 is 235 nM.

**Q.** What about the TGI (UO-31 renal) of the same compound?
**A.** The TGI was 2190 nM.
